Columns and labels:
[1] = system: Beet Armyworm (Spodoptera exigua); test: Bioassay on Beet Armyworm (BAW), 128-well diet tray assay; format: in vivo; conditions: for pest or weed control at 50 µg/cm2: Beet Armyworm, Table ABC, read-out: BAW rating
Experimental: (§1) Example A: Bioassays on Beet Armyworm (Spodoptera Exigua, LAPHEG) (“BAW”), Corn Earworm (Helicoverpa Zea, HELIZE) (“CEW”), and Cabbage Looper (Trichoplusia Ni, TRIPNI) (“CL”)
(§2) Certain molecules disclosed in this document were tested against BAW, CEW, and CL using procedures described in the following examples. In the reporting of the results, the “BAW, CEW, & CL Rating Table” was used (See Table Section).
Bioassays on BAW were conducted using a 128-well diet tray assay. One to five second instar BAW larvae were placed in each well (3 mL) of the diet tray that had been previously filled with 1 mL of artificial diet to which 50 μg/cm^2 of the test molecule (dissolved in 50 μL of 90:10 acetone-water mixture) had been applied (to each of eight wells) and then allowed to dry. Trays were covered with a clear self-adhesive cover and held at 25° C., 14:10 light-dark for five to seven days. Percent mortality was recorded for the larvae in each well; activity in the eight wells was then averaged. The results are indicated in the table entitled “Table ABC: Biological Results” (See Table Section).
(§3) Bioassays on BAW and CL were conducted according to the procedures outlined in Example A: Bioassays on Beet Armyworm (“BAW”) and Cabbage Looper (“CL”) using the indicated concentrations.

[2] = system: Cabbage Looper (Trichoplusia ni); test: Bioassay on Cabbage Looper (CL), 128-well diet tray assay; format: in vivo; conditions: for pest or weed control at 50 µg/cm2: Cabbage Looper, Table ABC, read-out: CL rating
Experimental: as §1, §2
Bioassays on CL were conducted using a 128-well diet tray assay. One to five second instar CL larvae were placed in each well (3 mL) of the diet tray that had been previously filled with 1 mL of artificial diet to which 50 μg/cm^2 of the test molecule (dissolved in 50 μL of 90:10 acetone-water mixture) had been applied (to each of eight wells) and then allowed to dry. Trays were covered with a clear self-adhesive cover and held at 25° C., 14:10 light-dark for five to seven days. Percent mortality was recorded for the larvae in each well; activity in the eight wells was then averaged. The results are indicated in the table entitled “Table ABC: Biological Results” (See Table Section).
as §3

Row | SMILES | pest or weed control at 50 µg/cm2 [1] [%] | pest or weed control at 50 µg/cm2 [2] [%] | further results
1 | C[C@@H](NC(=O)c1ccc(/C(F)=C/C(c2cc(Cl)c(Cl)c(Cl)c2)C(F)(F)F)cc1Cl)C(=O)N(C)CC(F)(F)F (stereo partly drawn) [F49, 2-Chloro-N—((R)-1-(methyl(2,2,2-trifluoroethyl)amino)-1-oxopropan-2-yl)-4-((Z)-1,4,4,4-tetrafluoro-3-(3,4,5-trichlorophenyl)but-1-en-1-yl)benzamide] | 50 to 100 | 50 to 100 | 
2 | C[C@@H](NC(=O)c1ccc(/C(F)=C/C(c2cc(Cl)c(Cl)c(Cl)c2)C(F)(F)F)cc1Br)C(=O)N(C)CC(F)(F)F (stereo partly drawn) [F50, 2-Bromo-N—((R)-1-(methyl(2,2,2-trifluoroethyl)amino)-1-oxopropan-2-yl)-4-((Z)-1,4,4,4-tetrafluoro-3-(3,4,5-trichlorophenyl)but-1-en-1-yl)benzamide] | 50 to 100 | 50 to 100 | 
3 | CN(CC(F)(F)F)C(=O)CNC(=O)c1ccc(/C(F)=C/C(c2cc(Cl)c(Cl)c(Cl)c2)C(F)(F)F)cc1C(F)(F)F (centres unmarked) [F51, (Z)—N-(2-(Methyl(2,2,2-trifluoroethyl)amino)-2-oxoethyl)-4-(1,4,4,4-tetrafluoro-3-(3,4,5-trichlorophenyl)but-1-en-1-yl)-2-(trifluoromethyl)benzamide] | 50 to 100 | 50 to 100 | 
4 | CC(C)(NC(=O)c1ccc(/C(F)=C/C(c2cc(Cl)c(Cl)c(Cl)c2)C(F)(F)F)cc1C(F)(F)F)C(=O)NCC(F)(F)F (centres unmarked) [F54, (Z)—N-(2-Methyl-1-oxo-1-((2,2,2-trifluoroethyl)amino)propan-2-yl)-4-(1,4,4,4-tetrafluoro-3-(3,4,5-trichlorophenyl)but-1-en-1-yl)-2-(trifluoromethyl)benzamide] | 50 to 100 | 50 to 100 | 
5 | C[C@@H](NC(=O)c1ccc(/C(F)=C/C(c2cc(Cl)c(Cl)c(Cl)c2)C(F)(F)F)cc1C(F)(F)F)C(=O)N(CC(F)(F)F)NC(=O)OC(C)(C)C (stereo partly drawn) [F55, tert-Butyl 2-((2R)-2-(4-((Z)-1,4,4,4-tetrafluoro-3-(3,4,5-trichlorophenyl)but-1-en-1-yl)-2-(trifluoromethyl)benzamido)propanoyl)-2-(2,2,2-trifluoroethyl)hydrazinecarboxylate] | 50 to 100 | 50 to 100 | 
6 | O=C(NC1(C(=O)CCC(F)(F)F)CC1)c1ccc(/C(F)=C/C(c2cc(Cl)c(Cl)c(Cl)c2)C(F)(F)F)cc1C(F)(F)F (centres unmarked) [F56, (Z)-4-(1,4,4,4-Tetrafluoro-3-(3,4,5-trichlorophenyl)but-1-en-1-yl)-N-(1-(4,4,4-trifluorobutanoyl)cyclopropyl)-2-(trifluoromethyl)benzamide] | 50 to 100 | 50 to 100 | 
7 | CC(F)(F)C(/C=C(\F)c1ccc(C(=O)NC2(C(=O)NCC(F)(F)F)CC2)c(C(F)(F)F)c1)c1cc(Cl)c(Cl)c(Cl)c1 (centres unmarked) [F58, (Z)-4-(1,4,4-Trifluoro-3-(3,4,5-trichlorophenyl)pent-1-en-1-yl)-N-(1-((2,2,2-trifluoroethyl)carbamoyl)cyclopropyl)-2-(trifluoromethyl)benzamide] | 50 to 100 | 50 to 100 | 
8 | CC(F)(F)C(/C=C(\F)c1ccc(C(=O)NCC(=O)NCC(F)(F)F)c(C(F)(F)F)c1)c1cc(Cl)c(Cl)c(Cl)c1 (centres unmarked) [F62, (Z)—N-(2-Oxo-2-((2,2,2-trifluoroethyl)amino)ethyl)-4-(1,4,4-trifluoro-3-(3,4,5-trichlorophenyl)pent-1-en-1-yl)-2-(trifluoromethyl)benzamide] | 50 to 100 | 50 to 100 | 
9 | CCNC(=O)[C@@H](C)NC(=O)c1ccc(/C(F)=C/C(c2cc(Cl)c(Cl)c(Cl)c2)C(F)(F)F)cc1C(F)(F)F (stereo partly drawn) [F63, N—((R)-1-(Ethylamino)-1-oxopropan-2-yl)-4-((Z)-1,4,4,4-tetrafluoro-3-(3,4,5-trichlorophenyl)but-1-en-1-yl)-2-(trifluoromethyl)benzamide] | 50 to 100 | 50 to 100 | 
10 | CCNC(=O)[C@@H](C)NC(=O)c1ccc(/C(F)=C/C(c2cc(Cl)c(Cl)c(Cl)c2)C(F)(F)F)cc1Cl (stereo partly drawn) [F64, 2-Chloro-N—((R)-1-(ethylamino)-1-oxopropan-2-yl)-4-((Z)-1,4,4,4-tetrafluoro-3-(3,4,5-trichlorophenyl)but-1-en-1-yl)benzamide] | 50 to 100 | 50 to 100 | 
11 | CC(NC(=O)CNC(=O)c1ccc(/C(F)=C/C(c2cc(Cl)c(Cl)c(Cl)c2)C(F)(F)F)cc1C(F)(F)F)C(F)(F)F (centres unmarked) [F65, (Z)—N-(2-Oxo-2-((1,1,1-trifluoropropan-2-yl)amino)ethyl)-4-(1,4,4,4-tetrafluoro-3-(3,4,5-trichlorophenyl)but-1-en-1-yl)-2-(trifluoromethyl)benzamide] | 50 to 100 | 50 to 100 | 
12 | CC(NC(=O)CNC(=O)c1ccc(/C(F)=C/C(c2cc(Cl)c(Cl)c(Cl)c2)C(F)(F)F)cc1Cl)C(F)(F)F (centres unmarked) [F66, (Z)-2-Chloro-N-(2-oxo-2-((1,1,1-trifluoropropan-2-yl)amino)ethyl)-4-(1,4,4,4-tetrafluoro-3-(3,4,5-trichlorophenyl)but-1-en-1-yl)benzamide] | 50 to 100 | 50 to 100 | 
13 | C[C@@H](NC(=O)c1ccc(/C(F)=C/C(c2cc(Cl)c(Cl)c(Cl)c2)C(F)(F)F)cc1I)C(=O)NCC(F)(F)F (stereo partly drawn) [F67, 2-Iodo-N—((R)-1-oxo-1-((2,2,2-trifluoroethyl)amino)propan-2-yl)-4-((Z)-1,4,4,4-tetrafluoro-3-(3,4,5-trichlorophenyl)but-1-en-1-yl)benzamide] | 50 to 100 | 50 to 100 | mortality at 0.05 µg/cm2 ([1]; 168 h, 0.05 μg/cm^2 on artificial diet, second instar larvae, five to seven days, read-out: BAW Percent control (or mortality)): 100%; mortality at 0.5 µg/cm2 ([1]; 168 h, 0.5 μg/cm^2 on artificial diet, second instar larvae, five to seven days, read-out: BAW Percent control (or mortality)): 100%; mortality at 5 µg/cm2 ([1]; 168 h, 5 μg/cm^2 on artificial diet, second instar larvae, five to seven days, read-out: BAW Percent control (or mortality)): 100%; mortality at 0.05 µg/cm2 ([2]; 168 h, 0.05 μg/cm^2 on artificial diet, second instar larvae, five to seven days, read-out: CL Percent control (or mortality)): 100%; mortality at 0.5 µg/cm2 ([2]; 168 h, 0.5 μg/cm^2 on artificial diet, second instar larvae, five to seven days, read-out: CL Percent control (or mortality)): 100%; mortality at 5 µg/cm2 ([2]; 168 h, 5 μg/cm^2 on artificial diet, second instar larvae, five to seven days, read-out: CL Percent control (or mortality)): 100%
14 | CCC(F)(F)C(/C=C(\F)c1ccc(C(=O)NCC(=O)NCC(F)(F)F)c(C(F)(F)F)c1)c1cc(Cl)c(Cl)c(Cl)c1 (centres unmarked) [F87, (Z)—N-(2-Oxo-2-((2,2,2-trifluoroethyl)amino)ethyl)-4-(1,4,4-trifluoro-3-(3,4,5-trichlorophenyl)hex-1-en-1-yl)-2-(trifluoromethyl)benzamide] | 50 to 100 | 50 to 100 | 
15 | CCC(F)(F)C(/C=C(\F)c1ccc(C(=O)NC2(C(=O)NCC(F)(F)F)CC2)c(C(F)(F)F)c1)c1cc(Cl)c(Cl)c(Cl)c1 (centres unmarked) [F88, (Z)-4-(1,4,4-Trifluoro-3-(3,4,5-trichlorophenyl)hex-1-en-1-yl)-N-(1-((2,2,2-trifluoroethyl)carbamoyl)cyclopropyl)-2-(trifluoromethyl)benzamide] | 50 to 100 | 50 to 100 | 
16 | O=C(NC1(C(=O)NCCCC(F)(F)F)CC1)c1ccc(/C(F)=C/C(c2cc(Cl)c(Cl)c(Cl)c2)C(F)(F)F)cc1C(F)(F)F (centres unmarked) [F89, (Z)-4-(1,4,4,4-Tetrafluoro-3-(3,4,5-trichlorophenyl)but-1-en-1-yl)-N-(1-((4,4,4-trifluorobutyl)carbamoyl)cyclopropyl)-2-(trifluoromethyl)benzamide] | 50 to 100 | 50 to 100 | 

From patent US10251394B2, “Molecules having pesticidal utility, and intermediates, compositions, and processes, related thereto” (Dow AgroSciences LLC, priority 2016, dated 2019)
